Measured values reported in PMC10649961, “Novel Mitochondria-Targeted Amphiphilic Aminophosphonium Salts and Lipids Nanoparticles: Synthesis, Antitumor Activity and Toxicity” (Nanomaterials, 2023).
Converted amounts (≈) assume the structure as drawn. Like-named read-outs stand apart in the source and are kept apart here. Each block holds one molecule with its values, some of them ahead of it.

What was measured:
[1] = tested on: Escherichia coli ATCC 25922; experiment: Antimicrobial activity, serial microdilutions, Ec; assay type: cell-based; set-up: key to Minimum Inhibitory Concentration (MIC) / Minimum bactericidal and fungicidal concentrations (MBC, MFC): – means non-active
Procedure: (§1) The antimicrobial activity of test compounds was determined by serial microdilutions in 96-well plates using Mueller-Hinton broth for bacterial culture and Sabouraud broth for yeast culture. Cultures of Gram-positive bacteria were used in the experiment: Staphylococcus aureus ATCC 6538 P FDA 209P, Bacillus cereus ATCC 10702 NCTC 8035, Enterococcus faecalis ATCC 29212; Gram-negative bacteria: Escherichia coli ATCC 25922, Pseudomonas aeruginosa ATCC 9027; and yeast: Candida albicans ATCC 10231, purchased from the State Collection of Pathogenic Microorganisms and Cell Cultures “SCPM-Obolensk” (Obolensk, Russia). Methicillin-resistant strains of S. aureus (MRSA) were isolated from patients with chronic tonsillitis (MRSA-1) and sinusitis (MRSA-2) in the bacteriological laboratory of the Republican Clinical Hospital (Kazan, Russia). The experiments were carried out in triplicate.

[2] = tested on: Candida albicans ATCC 10231; experiment: Antimicrobial activity, serial microdilutions, Ca; assay type: cell-based; set-up: key to Minimum Inhibitory Concentration (MIC) / Minimum bactericidal and fungicidal concentrations (MBC, MFC): – means non-active
Procedure: as §1

MRSA-1 = experiment: Antimicrobial activity, serial microdilutions, MRSA-1; assay type: cell-based, S. aureus; set-up: key to Minimum Inhibitory Concentration (MIC) / Minimum bactericidal and fungicidal concentrations (MBC, MFC): – means non-active
Procedure: as §1

[3] = tested on: Enterococcus faecalis ATCC 29212; experiment: Antimicrobial activity, serial microdilutions, Ef; assay type: cell-based; set-up: key to Minimum Inhibitory Concentration (MIC) / Minimum bactericidal and fungicidal concentrations (MBC, MFC): – means non-active
Procedure: as §1

[4] = tested on: Pseudomonas aeruginosa ATCC 9027; experiment: Antimicrobial activity, serial microdilutions, Pa; assay type: cell-based; set-up: key to Minimum Inhibitory Concentration (MIC) / Minimum bactericidal and fungicidal concentrations (MBC, MFC): – means non-active
Procedure: as §1

[5] = tested on: Staphylococcus aureus ATCC 6538 P FDA 209P; experiment: Antimicrobial activity, serial microdilutions, Sa; assay type: cell-based; details: Staphylococcus aureus; for MIC: read-out: Minimum Inhibitory Concentration (MIC); for MBC: read-out: Minimum bactericidal and fungicidal concentrations (MBC, MFC)
Procedure: as §1

MRSA-2 = experiment: Antimicrobial activity, serial microdilutions, MRSA-2; assay type: cell-based, S. aureus; details: Staphylococcus aureus; for MIC: read-out: Minimum Inhibitory Concentration (MIC); for MBC: read-out: Minimum bactericidal and fungicidal concentrations (MBC, MFC)
Procedure: as §1

[6] = tested on: Bacillus cereus ATCC 10702 NCTC 8035; experiment: Antimicrobial activity, serial microdilutions, Bc; assay type: cell-based; set-up: key to Minimum bactericidal and fungicidal concentrations (MBC, MFC): – means non-active; details: for MIC: read-out: Minimum Inhibitory Concentration (MIC)
Procedure: as §1

HuTu 80 [7] = details: calculated relative to the cell line WI38 (a)
Hep G2 [8] = experiment: cells; details: Homo sapiens, HepG2, 48 h, read-out: Cytotoxic Effects (IC50)
Hep G2 [9] = details: reference normal cell line not marked at the place (ns cells)
DU-145 [10] = experiment: cells; details: Homo sapiens, DU-145, 48 h
DU-145 [11] = details: reference normal cell line not marked at the place (ns cells)
MCF-7 [12] = experiment: cells; details: Homo sapiens, MCF7, 48 h, read-out: Cytotoxic Effects (IC50)
HuTu 80 [13] = experiment: cells; details: Homo sapiens, HuTu80, 48 h, read-out: Cytotoxic Effects (IC50)
SK-OV-3 [14] = experiment: cells; details: Homo sapiens, SK-OV-3, 48 h, read-out: Cytotoxic Effects (IC50)
PC3 [15] = experiment: cells; details: Homo sapiens, PC-3, 48 h, read-out: Cytotoxic Effects (IC50), PC3, MTT assay, 48 h
PC3 [16] = details: calculated relative to the cell line WI38 (a)
M-HeLa [17] = details: calculated relative to the cell line WI38 (a)
M-HeLa [18] = experiment: cells; details: Homo sapiens, 48 h, read-out: Cytotoxic Effects (IC50)
PANC-1 [19] = details: calculated relative to the cell line WI38 (a)
PANC-1 [20] = experiment: cells; details: Homo sapiens, PANC-1, 48 h, read-out: Cytotoxic Effects (IC50)
SK-OV-3 [21] = details: calculated relative to the cell line WI38 (a)
MCF-7 [22] = details: calculated relative to the cell line WI38 (a)
A549 = experiment: cells; details: Homo sapiens, A549, 48 h, read-out: Cytotoxic Effects (IC50)
T98G = experiment: cells; details: Homo sapiens, 48 h, read-out: Cytotoxic Effects (IC50)

SMILES: CC(=O)N1CCN(c2ccc(OCC3COC(Cn4ccnc4)(c4ccc(Cl)cc4Cl)O3)cc2)CC1 (stereo not shown) [Ketoconazole, reference compound]
Minimum Inhibitory Concentration (MIC) [1]: –
MIC ([2]; Candida albicans, ATCC10231, read-out: Minimum Inhibitory Concentration (MIC)): 7.3 ± 0.5 µM (≈ 3.88 µg/mL)
MBC ([2]; Candida albicans, ATCC10231, read-out: Minimum bactericidal and fungicidal concentrations (MBC, MFC)): 7.3 ± 0.5 µM (≈ 3.88 µg/mL)

MIC (MRSA-2): 7.5 ± 0.5 µM (≈ 2.4 µg/mL)
SMILES: CCn1cc(C(=O)O)c(=O)c2cc(F)c(N3CCNCC3)cc21 [Norfloxacin, reference compound]
Minimum Inhibitory Concentration (MIC) (MRSA-1): –
Minimum bactericidal and fungicidal concentrations (MBC, MFC) (MRSA-1): –
MIC ([3]; Enterococcus faecalis, ATCC29212, read-out: Minimum Inhibitory Concentration (MIC)): 24.4 ± 2.2 µM (≈ 7.79 µg/mL)
MBC ([3]; Enterococcus faecalis, ATCC29212, read-out: Minimum bactericidal and fungicidal concentrations (MBC, MFC)): 24.4 ± 1.9 µM (≈ 7.79 µg/mL)
MIC ([4]; Pseudomonas aeruginosa, ATCC9027, read-out: Minimum Inhibitory Concentration (MIC)): 12.1 ± 1.1 µM (≈ 3.86 µg/mL)
MBC ([4]; Pseudomonas aeruginosa, ATCC9027, read-out: Minimum bactericidal and fungicidal concentrations (MBC, MFC)): 49 ± 4.2 µM (≈ 15.6 µg/mL)
MIC [5]: 7.5 ± 0.5 µM (≈ 2.4 µg/mL)
MBC [5]: 7.5 ± 0.6 µM (≈ 2.4 µg/mL)
MIC ([1]; Escherichia coli, ATCC25922, read-out: Minimum Inhibitory Concentration (MIC)): 4.7 ± 0.02 µM (≈ 1.5 µg/mL)
MBC ([1]; Escherichia coli, ATCC25922, read-out: Minimum bactericidal and fungicidal concentrations (MBC, MFC)): 24.4 ± 2.3 µM (≈ 7.79 µg/mL)
MBC (MRSA-2): 7.5 ± 0.6 µM (≈ 2.4 µg/mL)
MIC ([6]; Bacillus cereus, Bc): 24.4 ± 2.1 µM (≈ 7.79 µg/mL)
MBC ([6]; Bacillus cereus, read-out: Minimum bactericidal and fungicidal concentrations (MBC, MFC)): 24.4 ± 2.1 µM (≈ 7.79 µg/mL)
Minimum Inhibitory Concentration (MIC) ([2]; Ca): –

SMILES: CCN(CC)[P+](CCCCCC[P+](N(CC)CC)(N(CC)CC)N(CC)CC)(N(CC)CC)N(CC)CC [compound 9, 1,6-Hexanediyl-bis(hexaethyltriaminophosphonium)dibromide]
selectivity index (SI) (HuTu 80 [7]): 3.5
IC50 (Hep G2 [8]): 53.9 ± 6.9 µM
selectivity index (SI) (Hep G2 [9]): ns (ns—no selectivity)
IC50 (DU-145 [10]; read-out: Cytotoxic Effects (IC50), DU-145, MTT assay, 48 h): 50.5 ± 6.4 µM
selectivity index (SI) (DU-145 [11]): ns (ns—no selectivity)
MIC (MRSA-1; Staphylococcus aureus, read-out: Minimum Inhibitory Concentration (MIC)): 137 ± 19 µM
MBC (MRSA-1; Staphylococcus aureus, read-out: Minimum bactericidal and fungicidal concentrations (MBC, MFC)): 137 ± 18 µM
IC50 (MCF-7 [12]): 37.8 ± 4.8 µM
Minimum Inhibitory Concentration (MIC) [3]: –
Minimum bactericidal and fungicidal concentrations (MBC, MFC) [3]: –
Minimum Inhibitory Concentration (MIC) [4]: –
Minimum bactericidal and fungicidal concentrations (MBC, MFC) [4]: –
IC50 (HuTu 80 [13]): 13.1 ± 1.7 µM
IC50 (SK-OV-3 [14]): 36.4 ± 4.7 µM
MIC [5]: 34.3 ± 5.4 µM
MBC [5]: 137 ± 21 µM
IC50 (PC3 [15]): 34.9 ± 4.5 µM
selectivity index (SI) (PC3 [16]): 1.3
selectivity index (SI) (M-HeLa [17]): 1.5
IC50 (M-HeLa [18]): 31.1 ± 3.9 µM
Minimum Inhibitory Concentration (MIC) [1]: –
Minimum bactericidal and fungicidal concentrations (MBC, MFC) [1]: –
selectivity index (SI) (PANC-1 [19]): 1.2
MIC (MRSA-2): 34.3 ± 5.3 µM
MBC (MRSA-2): 137 ± 21 µM
IC50 (PANC-1 [20]): 39.6 ± 5.1 µM
selectivity index (SI) (SK-OV-3 [21]): 1.3
MIC ([6]; Bacillus cereus, Bc): 274 ± 48 µM
Minimum bactericidal and fungicidal concentrations (MBC, MFC) ([6]; Bc): –
selectivity index (SI) (MCF-7 [22]): 1.2
IC50 (A549): > 100 µM
IC50 (T98G): > 100 µM
Minimum Inhibitory Concentration (MIC) ([2]; Ca): –
Minimum bactericidal and fungicidal concentrations (MBC, MFC) ([2]; Ca): –

SMILES: COc1cccc2c1C(=O)c1c(O)c3c(c(O)c1C2=O)C[C@@](O)(C(=O)CO)C[C@@H]3O[C@H]1C[C@H](N)[C@H](O)[C@H](C)O1 [doxorubicin, reference compound]
IC50 (Hep G2 [8]): 0.2 ± 0.01 µM
IC50 (DU-145 [10]; read-out: Cytotoxic Effects (IC50)): 0.3 ± 0.02 µM
IC50 (MCF-7 [12]): 0.4 ± 0.03 µM
IC50 (HuTu 80 [13]): 0.2 ± 0.01 µM
IC50 (SK-OV-3 [14]): 6.7 ± 0.5 µM
IC50 (M-HeLa [18]): 2.1 ± 0.1 µM
IC50 (PANC-1 [20]): 2.2 ± 0.1 µM
IC50 (A549): 0.7 ± 0.06 µM
IC50 (T98G): 1 ± 0.09 µM
